Tests used:
wheat = assay: Test A preemergence; assay type: in vivo, Triticum aestivum
Method in brief: (§1)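 Scoring: eye-based comparison with untreated controls, 0 for no effect through 100 for complete control, at about day 10. Treatments: directed soil spray preemergence; foliar spray postemergence on 2–10 cm plants at the one- to two-leaf stage. Medium: loam soil with sand.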

corn [1] = assay: Test A preemergence; assay type: in vivo, Zea mays
Method in brief: as §1

large (Lg) crabgrass [2] = assay: Test A postemergence; assay type: in vivo, Digitaria sanguinalis
Method in brief: as §1

sedge, umbrella = assay: Test B flooded paddy test; assay type: in vivo, Cyperus difformis; settings: Flood, 250 g ai/ha, 0 to 100 scale where 0 is no effect and 100 is complete control
Method in brief: (§2)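 Plants were grown to the 2-leaf stage, then pots were flooded to 3 cm above the soil and compounds were applied directly into the paddy water. That depth was held throughout, and after 13 to 15 days in the greenhouse injury was rated visually against controls on a 0–100 scale (0 no effect, 100 complete control).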

barnyardgrass [3] = assay: Test B flooded paddy test; assay type: in vivo, Echinochloa crus-galli; settings: Flood, 250 g ai/ha, 0 to 100 scale where 0 is no effect and 100 is complete control
Method in brief: as §2

wheat, winter = assay: Test C postemergence; assay type: in vivo, Triticum aestivum
Method in brief: (§3)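 Preemergence: seeds sown in a loam soil–sand blend and sprayed with test chemical in a non-phytotoxic solvent mixture containing surfactant. Postemergence: plants at 2 to 18 cm (1- to 4-leaf stage) in peat-based medium, treated with the same formulation. Greenhouse 13 to 15 days, then visual rating 0 (no effect) to 100 (complete control).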

corn [4] = assay: Test C postemergence; assay type: in vivo, Zea mays
Method in brief: as §3

large (Lg) crabgrass [5] = assay: Test C postemergence; assay type: in vivo, Digitaria sanguinalis
Method in brief: as §3

giant foxtail = assay: Test C postemergence; assay type: in vivo, Setaria faberii
Method in brief: as §3

lambsquarters = assay: Test C postemergence; assay type: in vivo, Chenopodium album
Method in brief: as §3

barnyardgrass [6] = assay: Test C postemergence; assay type: in vivo, Echinochloa crus-galli
Method in brief: as §3

waterhemp = assay: Test C postemergence; assay type: in vivo, Amaranthus rudis
Method in brief: as §3

chickweed = assay: Test C postemergence; assay type: in vivo, Stellaria media
Method in brief: as §3

[7] = 31 g ai/ha, postemergence, visual rating, scale 0 to 100 (0 no effect, 100 complete control), 13 to 15 days
[8] = 1000 g ai/ha, 0 to 100 scale, 0 no effect, 100 complete control
[9] = Postemergence, 31 g ai/ha, scale 0 to 100 (0 no effect, 100 complete control), 13 to 15 days
[10] = Postemergence, 62 g ai/ha, scale 0 to 100 (0 no effect, 100 complete control)
[11] = 16 g ai/ha, postemergence, visual rating, scale 0 to 100 (0 no effect, 100 complete control), 13 to 15 days

## Fc1cccc(Oc2ncc(Cl)cn2)c1-n1cc(Br)cn1 [Compound 178, 2-[2-(4-bromo-1H-pyrazol-1-yl)-3-fluorophenoxy]-5-chloropyrimidine]
wheat; 125 g ai/ha
  Wheat plant response rating (0 to 100 scale): 0
wheat; Triticum aestivum, pre-emergence, 240 h, 500 g ai/ha, 0 to 100 scale where 0 is no effect and 100 is complete control, read-out: Wheat plant response rating
  plant injury at 500 g/ha: 40%
Corn [1]; Zea mays, pre-emergence, 240 h, 125 g ai/ha, 0 to 100 scale where 0 is no effect and 100 is complete control
  Corn plant response rating (crop injury, 0 = no effect, 100 = complete kill) at 125 g/ha: 0%
Corn [1]; Zea mays, pre-emergence, 240 h, 500 g ai/ha, 0 to 100 scale where 0 is no effect and 100 is complete control, read-out: Corn plant response rating
  plant injury at 500 g/ha: 30%
Large (Lg) crabgrass [2]; 125 g ai/ha, 0 to 100 scale where 0 is no effect and 100 is complete control
  Crabgrass, Large plant response rating: 90
Large (Lg) crabgrass [2]; Digitaria sanguinalis, post-emergence, 240 h, 500 g ai/ha, 0 to 100 scale where 0 is no effect and 100 is complete control, read-out: Plant response rating, Crabgrass, Large
  pest or weed control at 500 g/ha: 100%
sedge, umbrella; Cyperus difformis, read-out: Plant response rating, Sedge, Umbrella
  pest or weed control at 250 g/ha: 0%
Barnyardgrass [3]; Echinochloa crus-galli, read-out: Plant response rating, Barnyardgrass
  pest or weed control at 250 g/ha: 0%
wheat, winter; [7]
  Wheat plant response rating: 0
wheat, winter; Triticum aestivum, post-emergence, 16 g ai/ha, postemergence, 0 is no effect, 100 is complete control, read-out: Plant response rating (0 to 100), Wheat
  plant injury at 16 g/ha: 0%
wheat, winter; Triticum aestivum, post-emergence, 125 g ai/ha, postemergence, visual rating, scale 0 to 100 (0 no effect, 100 complete control), read-out: Plant response rating, Wheat
  plant injury at 125 g/ha: 0%
wheat, winter; Triticum aestivum, post-emergence, Postemergence, 62 g ai/ha, scale 0 to 100 (0 no effect, 100 complete control), read-out: Plant response rating, Wheat
  plant injury at 62 g/ha: 0%
Corn [4]; Zea mays, post-emergence, 16 g ai/ha, postemergence, 0 is no effect, 100 is complete control, read-out: Plant response rating (0 to 100), Corn
  plant injury at 16 g/ha: 5%
Corn [4]; Zea mays, post-emergence, 31 g ai/ha, postemergence, visual rating, scale 0 to 100 (0 no effect, 100 complete control), 13 to 15 days, read-out: Corn plant response rating
  plant injury at 31 g/ha: 10%
Corn [4]; Zea mays, post-emergence, 125 g ai/ha, postemergence, visual rating, scale 0 to 100 (0 no effect, 100 complete control)
  Corn plant response rating (crop injury, 0 = no effect, 100 = complete kill) at 125 g/ha: 10%
Corn [4]; Zea mays, post-emergence, Postemergence, 62 g ai/ha, scale 0 to 100 (0 no effect, 100 complete control)
  Corn plant response rating (crop injury, 0 = no effect, 100 = complete kill) at 62 g/ha: 10%
Large (Lg) crabgrass [5]; Digitaria sanguinalis, post-emergence, 16 g ai/ha, postemergence, 0 is no effect, 100 is complete control, read-out: Plant response rating (0 to 100), Crabgrass, Large
  pest or weed control at 16 g/ha: 5%
Large (Lg) crabgrass [5]; Digitaria sanguinalis, post-emergence, 31 g ai/ha, postemergence, visual rating, scale 0 to 100 (0 no effect, 100 complete control), 13 to 15 days, read-out: Crabgrass, Large plant response rating
  pest or weed control at 31 g/ha: 10%
Large (Lg) crabgrass [5]; Digitaria sanguinalis, post-emergence, 125 g ai/ha, postemergence, visual rating, scale 0 to 100 (0 no effect, 100 complete control), read-out: Plant response rating, Crabgrass, Large
  pest or weed control at 125 g/ha: 10%
Large (Lg) crabgrass [5]; Digitaria sanguinalis, post-emergence, Postemergence, 62 g ai/ha, scale 0 to 100 (0 no effect, 100 complete control), read-out: Plant response rating, Crabgrass, Large
  pest or weed control at 62 g/ha: 5%
Giant foxtail; Setaria faberi, post-emergence, 16 g ai/ha, postemergence, 0 is no effect, 100 is complete control, read-out: Plant response rating (0 to 100), Foxtail, Giant
  pest or weed control at 16 g/ha: 5%
Giant foxtail; Setaria faberi, post-emergence, 31 g ai/ha, postemergence, visual rating, scale 0 to 100 (0 no effect, 100 complete control), 13 to 15 days, read-out: Foxtail, Giant plant response rating
  pest or weed control at 31 g/ha: 5%
Giant foxtail; Setaria faberi, post-emergence, 125 g ai/ha, postemergence, visual rating, scale 0 to 100 (0 no effect, 100 complete control), read-out: Plant response rating, Foxtail, Giant
  pest or weed control at 125 g/ha: 25%
Giant foxtail; Setaria faberi, post-emergence, Postemergence, 62 g ai/ha, scale 0 to 100 (0 no effect, 100 complete control), read-out: Plant response rating, Foxtail, Giant
  pest or weed control at 62 g/ha: 5%
lambsquarters; [7]
  Lambsquarters plant response rating: 80
lambsquarters; Chenopodium album, post-emergence, 16 g ai/ha, postemergence, 0 is no effect, 100 is complete control, read-out: Plant response rating (0 to 100), Lambsquarters
  pest or weed control at 16 g/ha: 70%
lambsquarters; Chenopodium album, post-emergence, 125 g ai/ha, postemergence, visual rating, scale 0 to 100 (0 no effect, 100 complete control), read-out: Plant response rating, Lambsquarters
  pest or weed control at 125 g/ha: 98%
lambsquarters; Chenopodium album, post-emergence, Postemergence, 62 g ai/ha, scale 0 to 100 (0 no effect, 100 complete control), read-out: Plant response rating, Lambsquarters
  pest or weed control at 62 g/ha: 85%
Barnyardgrass [6]; Echinochloa crus-galli, post-emergence, 16 g ai/ha, postemergence, 0 is no effect, 100 is complete control, read-out: Plant response rating (0 to 100), Barnyardgrass
  pest or weed control at 16 g/ha: 5%
Barnyardgrass [6]; Echinochloa crus-galli, post-emergence, 31 g ai/ha, postemergence, visual rating, scale 0 to 100 (0 no effect, 100 complete control), 13 to 15 days, read-out: Barnyardgrass plant response rating
  pest or weed control at 31 g/ha: 5%
Barnyardgrass [6]; Echinochloa crus-galli, post-emergence, 125 g ai/ha, postemergence, visual rating, scale 0 to 100 (0 no effect, 100 complete control), read-out: Plant response rating, Barnyardgrass
  pest or weed control at 125 g/ha: 10%
Barnyardgrass [6]; Echinochloa crus-galli, post-emergence, Postemergence, 62 g ai/ha, scale 0 to 100 (0 no effect, 100 complete control), read-out: Plant response rating, Barnyardgrass
  pest or weed control at 62 g/ha: 5%
waterhemp; [7]
  Waterhemp plant response rating: 90
waterhemp; Amaranthus tuberculatus, post-emergence, 16 g ai/ha, postemergence, 0 is no effect, 100 is complete control, read-out: Plant response rating (0 to 100), Waterhemp
  pest or weed control at 16 g/ha: 80%
waterhemp; Amaranthus tuberculatus, post-emergence, 125 g ai/ha, postemergence, visual rating, scale 0 to 100 (0 no effect, 100 complete control), read-out: Plant response rating, Waterhemp
  pest or weed control at 125 g/ha: 100%
waterhemp; Amaranthus tuberculatus, post-emergence, Postemergence, 62 g ai/ha, scale 0 to 100 (0 no effect, 100 complete control), read-out: Plant response rating, Waterhemp
  pest or weed control at 62 g/ha: 90%
chickweed; Stellaria media, post-emergence, 16 g ai/ha, postemergence, 0 is no effect, 100 is complete control, read-out: Plant response rating (0 to 100), Chickweed
  pest or weed control at 16 g/ha: 40%
chickweed; Stellaria media, post-emergence, 31 g ai/ha, postemergence, visual rating, scale 0 to 100 (0 no effect, 100 complete control), 13 to 15 days, read-out: Chickweed plant response rating
  pest or weed control at 31 g/ha: 50%
chickweed; Stellaria media, post-emergence, 125 g ai/ha, postemergence, visual rating, scale 0 to 100 (0 no effect, 100 complete control), read-out: Plant response rating, Chickweed
  pest or weed control at 125 g/ha: 80%
chickweed; Stellaria media, post-emergence, Postemergence, 62 g ai/ha, scale 0 to 100 (0 no effect, 100 complete control), read-out: Plant response rating, Chickweed
  pest or weed control at 62 g/ha: 65%

## Clc1cnc(Oc2cccc(Br)c2-n2cc(Br)cn2)nc1 [Compound 65]
wheat; 1000 g ai/ha, 0 to 100 scale, 0 no effect, 100 complete control, approx. 10 days
  Wheat plant response rating: 30
Corn [1]; [8]
  Plant response rating, Corn: 40
Large (Lg) crabgrass [2]; [8]
  Plant response rating, Crabgrass, Large: 100
sedge, umbrella
  Plant response rating, Sedge, Umbrella: 95
Barnyardgrass [3]
  Plant response rating, Barnyardgrass: 0
wheat, winter; 125 g ai/ha, postemergence
  Plant response rating (0 to 100), Wheat: 10
wheat, winter; [9]
  Plant response rating, Wheat: 0
wheat, winter; [10]
  Plant response rating, Wheat: 5
Corn [4]; [11]
  Corn plant response rating: 5
Corn [4]; 125 g ai/ha, postemergence
  Plant response rating (0 to 100), Corn: 10
Corn [4]; [9]
  Plant response rating, Corn: 10
Corn [4]; [10]
  Plant response rating, Corn: 10
Large (Lg) crabgrass [5]; [11]
  Crabgrass, Large plant response rating: 5
Large (Lg) crabgrass [5]; 125 g ai/ha, postemergence
  Plant response rating (0 to 100), Crabgrass, Large: 5
Large (Lg) crabgrass [5]; [9]
  Plant response rating, Crabgrass, Large: 5
Large (Lg) crabgrass [5]; [10]
  Plant response rating, Crabgrass, Large: 5
Giant foxtail; [11]
  Foxtail, Giant plant response rating: 5
Giant foxtail; 125 g ai/ha, postemergence
  Plant response rating (0 to 100), Foxtail, Giant: 10
Giant foxtail; [9]
  Plant response rating, Foxtail, Giant: 10
Giant foxtail; [10]
  Plant response rating, Foxtail, Giant: 10
lambsquarters; 125 g ai/ha, postemergence
  Plant response rating (0 to 100), Lambsquarters: 90
lambsquarters; [9]
  Plant response rating, Lambsquarters: 80
lambsquarters; [10]
  Plant response rating, Lambsquarters: 75
Barnyardgrass [6]; [11]
  Barnyardgrass plant response rating: 5
Barnyardgrass [6]; 125 g ai/ha, postemergence
  Plant response rating (0 to 100), Barnyardgrass: 10
Barnyardgrass [6]; [9]
  Plant response rating, Barnyardgrass: 5
Barnyardgrass [6]; [10]
  Plant response rating, Barnyardgrass: 5
waterhemp; 125 g ai/ha, postemergence
  Plant response rating (0 to 100), Waterhemp: 90
waterhemp; [9]
  Plant response rating, Waterhemp: 75
waterhemp; [10]
  Plant response rating, Waterhemp: 95
chickweed; [11]
  Chickweed plant response rating: 60
chickweed; 125 g ai/ha, postemergence
  Plant response rating (0 to 100), Chickweed: 98
chickweed; [9]
  Plant response rating, Chickweed: 50
chickweed; [10]
  Plant response rating, Chickweed: 70

From patent publication US9695155B2, “Herbicidal substituted pyrimidinyloxy benzene compounds” (E. I. DU PONT DE NEMOURS AND COMPANY, priority 2013, dated 2017)
